Tests used:
JAK1 = JAK1 (Homo sapiens, UniProt P23458); conditions: cited from earlier work
[1] = Particle size distribution of SHR0302 by laser diffraction (Malvern); assay type: physicochemical; conditions: SHR0302 used in Example 1, FIG. 1
Text: In the pharmaceutical compositions of the present invention, the active ingredient is present as small particles. Particle size of the drug can be assessed using laser diffraction methods. Laser diffraction is recognized by standards and guidance agencies including ISO and ASTM and is widely used to determine particle size distributions. In conducting the assessment, the sample is passed through a laser beam, which results in laser light scattered at a range of angles. Detectors placed at fixed angles measure the intensity of light scattered at that position. A mathematical model is then applied to generate a particle size distribution. The particle size values reported herein are determined by using a liquid or wet dispersion method.
In particle size determinations, the median value is defined as the value where half of the population resides above this point, and half resides below this point. For particle size distributions the median is called the D50. The D50 is the size that splits the distribution with half above and half below this diameter. The distribution width may also be characterized by citing one, two or three values on the x-axis, typically some combination of the D10, D50, and D90. The D50, the median, has been defined above as the diameter where half of the population lies below this value. Similarly, 90 percent of the distribution lies below the D90, and 10 percent of the population lies below the D10.
A pharmaceutical composition comprising 3% SHR0302 suspended in dimethicone was prepared. The primary particle size distribution of the SHR0302 is characterized by a D10 value of less than about 0.25 μm; a D50 value of less than about 0.7 μm; and a D90 value of less than about 5 μm. The pharmaceutical composition was a transparent solution due to the particles being too small to scatter visible light. A Malvern Metasizer Model 3000 using the Hydro MV dispersion unit was used to determine the particle size distribution profile of SHR0302. […]

[2] = orally administrated, women; cited from earlier work

JAK1, sequence (P23458 whole entry): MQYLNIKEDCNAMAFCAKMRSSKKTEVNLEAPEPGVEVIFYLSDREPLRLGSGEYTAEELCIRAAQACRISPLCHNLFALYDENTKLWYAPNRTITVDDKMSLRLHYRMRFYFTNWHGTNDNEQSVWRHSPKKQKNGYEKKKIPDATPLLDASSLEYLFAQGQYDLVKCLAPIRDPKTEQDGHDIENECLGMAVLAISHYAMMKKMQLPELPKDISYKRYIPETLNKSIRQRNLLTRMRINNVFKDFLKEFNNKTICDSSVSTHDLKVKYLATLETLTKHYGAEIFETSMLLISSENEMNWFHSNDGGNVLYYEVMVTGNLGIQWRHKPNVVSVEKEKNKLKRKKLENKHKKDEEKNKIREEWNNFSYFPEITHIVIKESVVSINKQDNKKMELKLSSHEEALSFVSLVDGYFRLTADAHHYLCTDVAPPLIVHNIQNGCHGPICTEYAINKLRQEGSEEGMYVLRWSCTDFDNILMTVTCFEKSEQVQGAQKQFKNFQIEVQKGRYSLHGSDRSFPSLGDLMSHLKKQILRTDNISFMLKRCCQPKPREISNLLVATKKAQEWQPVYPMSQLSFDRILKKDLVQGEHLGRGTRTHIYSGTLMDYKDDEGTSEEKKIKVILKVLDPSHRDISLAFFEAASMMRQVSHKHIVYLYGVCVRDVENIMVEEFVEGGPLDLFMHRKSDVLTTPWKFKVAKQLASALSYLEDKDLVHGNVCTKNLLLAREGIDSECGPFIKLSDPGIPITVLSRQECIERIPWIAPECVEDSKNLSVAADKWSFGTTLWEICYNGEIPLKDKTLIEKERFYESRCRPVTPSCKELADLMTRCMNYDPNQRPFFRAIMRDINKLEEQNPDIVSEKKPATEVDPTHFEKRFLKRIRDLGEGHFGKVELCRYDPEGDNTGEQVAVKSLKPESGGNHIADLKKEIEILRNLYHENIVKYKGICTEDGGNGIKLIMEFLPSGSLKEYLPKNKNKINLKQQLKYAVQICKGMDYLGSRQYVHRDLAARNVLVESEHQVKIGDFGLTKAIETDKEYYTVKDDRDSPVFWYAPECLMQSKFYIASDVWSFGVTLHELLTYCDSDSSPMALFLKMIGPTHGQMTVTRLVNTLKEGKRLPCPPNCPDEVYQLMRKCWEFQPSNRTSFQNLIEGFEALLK

Row | SMILES | inhibition of JAK1 (JAK1) | primary particle size D10 [1] | primary particle size D50 [1] | primary particle size D90 [1] | efficacy in treatment of acne [2]
1 | COc1nsc(NC(=O)N2C[C@H]3C[C@H](N(C)c4ncnc5[nH]ccc45)C[C@H]3C2)n1 [SHR0302, (3aR,5S,6aS)-N-(3-methoxyl-1,2,4-thiadiazol-5-yl)-5-(methyl(7H-pyrrolo[2,3-d]pyrimidin-4-yl)amino)hexahydrocyclopenta[c]pyrrole-2(1H)-carboxamide] | potent | less than 0.25 μm | less than 0.7 μm | less than 5 μm | 
2 | CC(=O)S[C@@H]1CC2=CC(=O)CC[C@]2(C)[C@H]2CC[C@@]3(C)[C@@H](CC[C@@]34CCC(=O)O4)[C@H]12 [spironolactone, 17-hydroxy-7α-mercapto-3-oxo-17α-pregn-4-ene-21-carboxylic acid γ-lactone acetate] |  |  |  |  | efficacious

Source: patent publication US20230414511A1, “COMPOSITIONS AND METHODS FOR DEEP DERMAL DRUG DELIVERY” (ARCUTIS BIOTHERAPEUTICS, INC., priority 2020, published 2023)
